Measurements reported in patent US6605424B1, “Method of detecting inhibitors of agonist-specific desensitization” (Duke University, priority 1989, dated 2003).
Values joined by “and” are separate entries in the source; they are usually repeats but may differ in a detail not shown here. Equal values may be shown once. Each block holds one compound with its values, some of them ahead of it. Residues, ends and D or L forms follow the SMILES beside them. No end group written: not given here.

How the values were obtained:
βAR kinase [1] = molecular target: T1, βAR kinase (Bos taurus, UniProt P21146); assay: Inhibition of β2AR phosphorylation by βAR kinase by synthetic peptides (Example III); format: biochemical, bovine; conditions: for inhibition of β2AR phosphorylation: tested at ˜0.5 mM
T1 construct: βAR kinase was purified from bovine cerebral cortex; from tissue; host or cells: bovine cerebral cortex
T1 sequence (P21146 1-689): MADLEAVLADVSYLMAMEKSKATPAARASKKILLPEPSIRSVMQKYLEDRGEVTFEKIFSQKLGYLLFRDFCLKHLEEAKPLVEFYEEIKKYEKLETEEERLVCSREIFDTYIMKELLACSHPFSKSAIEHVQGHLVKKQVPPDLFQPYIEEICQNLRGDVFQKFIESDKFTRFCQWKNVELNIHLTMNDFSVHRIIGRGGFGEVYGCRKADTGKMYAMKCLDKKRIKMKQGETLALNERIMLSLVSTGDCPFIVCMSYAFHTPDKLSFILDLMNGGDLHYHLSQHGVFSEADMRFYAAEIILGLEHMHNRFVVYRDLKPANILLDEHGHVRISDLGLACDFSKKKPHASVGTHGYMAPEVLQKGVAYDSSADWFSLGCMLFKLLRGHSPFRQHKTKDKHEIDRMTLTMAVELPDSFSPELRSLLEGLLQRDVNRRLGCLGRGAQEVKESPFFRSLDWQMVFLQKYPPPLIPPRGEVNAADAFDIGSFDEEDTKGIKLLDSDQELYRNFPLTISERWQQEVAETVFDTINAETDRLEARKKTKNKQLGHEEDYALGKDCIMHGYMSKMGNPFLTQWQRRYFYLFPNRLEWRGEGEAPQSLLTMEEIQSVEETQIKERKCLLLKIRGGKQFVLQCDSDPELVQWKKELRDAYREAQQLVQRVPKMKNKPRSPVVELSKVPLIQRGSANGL
Method: FIG. 13. Inhibition of β2AR phosphorylation by synthetic peptides. Reconstituted β2AR (˜0.4 pmol) was incubated for 30 min at 30° with purified βAR kinase (˜30 ng) in the presence of 50 mM Tris-HCl, pH 7.5, 2 mM EDTA, 10 mM NaCl, 5 mM MgCl2, 5 mM sodium phosphate, 50 μM (−)-isoproterenol and 0.10 mM [γ^32P]ATP (2.0 cpm/fmol). Synthetic β2AR peptides were varied from 0 to 1 mM and included CI (Δ), CII (▴), CIII-2 (◯) and CT-1 (●). Reactions were stopped by the addition of […]. ^32P-labeled receptor was determined by cutting and counting the dried gel following autoradiography.
The β2-adrenergic receptor from hamster lung was purified to apparent homogeneity by sequential affinity and high performance liquid chromatography as described (Benovic et al (1984) Biochemistry 23:4510-4518). The purified receptor was reinserted into phosphatidylcholine vesicles as previously described (Cerione et al (1983) Nature 306:562-566). The protein-lipid pellets were resuspended in 20 mM Tris-HCl, pH 7.2, 2 mM EDTA and used as a substrate for the βAR kinase.
βAR kinase was purified from bovine cerebral cortex by modification of a previously described procedure (Benovic et al (1987) J. Biol. Chem. 262:9026-9032). Briefly, 250 g of bovine cortex was homogenized and the resulting high speed supernatant fraction was precipitated with 13-26% ammonium sulfate. This material was initially chromatographed on an Ultrogel AcA34 column equilibrated with 5 mM Tris-HCl, pH 7.5, 2 mM EDTA, 5 μg/ml leupeptin, 5 μg/ml pepstatin, 15 μg/ml benzamidine, 0.2 mM phenylmethyl sulfonyl fluoride (buffer A). The peak activity was diluted 1:1 with buffer A containing 0.02% triton X-100 and applied to a DEAE Sephacel column. Elution was accomplished with a 0-80 mM NaCl gradient in buffer A containing triton X-100. The peak activity was then applied directly to a CM Fractogel column and eluted with a 0-100 mM NaCl gradient in buffer A containing triton X-100. The purified kinase was stored at 4° C.
The inhibition of substrate phosphorylation by βAR kinase in the presence of synthetic peptides was assayed as follows. Reconstituted βAR (0.2-1 pmol/inclubation) was incubated with βAR kinase (10-30 ng) in a buffer containing 50 mM Tris-HCl, pH 7.5, 2 mM EDTA, 10 mM NaCl, 5 mM MgCl2, 5 mM sodium phosphate, 50 μM (−)-isoproterenol, 0.10 mM [γ-^32P]ATP (1-3 cpm/fmol) at 30° C. for 30 min. Synthetic β2AR peptides were varied in concentration from 0 to 2 mM. Reactions were quenched by the addition of SDS sample buffer followed by gel electrophoresis. In some experiments urea treated rod outer segments (Wilden et al (1982) Biochemistry 21:3014-3022; Shichi et al (1978) J. Biol. Chem. 253:7040-7046) were used as the substrate for βAR kinase. To further define the specificity of the peptide inhibition, phosvitin, casein (see Example I) and the synthetic peptides CT-2 and CT-3 were used as substrates for βAR kinase.
SDS polyacrylamide gel electrophoresis was performed by the method of Laemmli (Nature (1970) 227:[…]) using 10 or 15% homogeneous slab gels. SDS sample buffer contained 8% SDS, 10% glycerol, 5% β-mercaptoethanol, 25 mM Tris-HCl, pH 6.5 and 0.003% bromphenol blue. SDS urea polyacrylamide gel electrophoresis was carried out using 6.5 M urea, 0.1% SDS, 100 mM H3PO4, pH 6.8 with Tris-HCl and 9% acrylamide (Swank et al (1971) Anal. Biochem. 39:462). SDS urea sample buffer contained 1% SDS, 8M urea, 10 mM H3PO4, pH 6.8 with Tris-HCl, 1% β-mercaptoethanol and 0.003% bromphenol blue.

βAR kinase [2] = molecular target: T1, βAR kinase; assay: Phosphorylation of rhodopsin (urea-treated rod outer segments) by βAR kinase; format: biochemical, bovine; conditions: for Hill coefficient of inhibition: data of FIG. 1; for inhibition of βAR kinase: polycations, FIG. 3
Method: βAR kinase was purified from bovine cerebral cortex by modification of procedure of Benovic et al (J. Biol. Chem. (1987) 262:9026-9032). Briefly, 250 g of bovine cerebral cortex were homogenized with a Brinkmann tissue disrupter and centrifuged (40,000×g, 30 min). The supernatant was then precipitated with 13-26% ammonium sulfate. This material was initially chromatographed on a Ultrogel AcA34 column equilibrated with 5 mM Tris-HCl, pH 7.5, 2 mM EDTA, 10 μg/ml leupeptin, 5 μg/ml pepstatin, 10 μg/ml benzamidine, 0.2 mM phenylmethylsulfonyl fluoride (buffer A). The peak activity was diluted with an equal volume of buffer A containing 0.04% Triton X-100 before being applied to a DEAE-Sephacel column. Elution was accomplished with a 0-80 mM NaCl gradient in buffer A containing 0.02% Triton X-100. The peak activity was then applied to a CM-Fractogel column and eluted with a 0-100 mM NaCl gradient in buffer A containing 0.02% Triton X-100. The purified kinase is stable at 4° C. for several months. For these studies the βAR kinase preparations were >75% pure.
Rod outer segments were prepared from bovine retinas by stepwise sucrose gradient centrifugation (Wilden et al Biochemistry (1982) 21:3014-3022). Rhodopsin kinase-free rod outer segments were prepared by treatment with 5 M urea (Shichi et al J. Biol. Chem. (1978) 253:7040-7046) and consisted of ˜95% rhodopsin, as assessed by Coomassie Blue staining of sodium dodecyl sulfate-polyacrylamide gels.
Urea-treated rod outer segments were phosphorylated with βAR kinase as follows. Urea-treated rod outer segments (˜4 μg of rhodopsin) were incubated with βAR kinase (˜0.1 μg) for 10-15 min at 30° C. in the presence of 40 mM Tris-HCl, pH 7.4, 10 mM NaCl, 5 mM MgCl2, 1.5 mM EDTA, and 65 μM ATP (˜1 cpm/fmol) (total reaction volume was 40 μl). Reactions were stopped by the addition of 40 μl of sodium dodecyl sulfate sample buffer (see below) followed by sodium dodecyl sulfate-polyacrylamide gel electrophoresis. After autoradiography, the phosphorylated rhodopsin bands were excised and counted.
Sodium dodecyl sulfate-polyacrylamide gel electrophoresis was performed by the method of Laemmli (Nature (1970) 227:680-685) using 10% homogeneous polyacrylamide slab gels. Sample buffer contained 8% sodium dodecyl sulfate, 10% glycerol, 5% 3-mercaptoethanol, 25 mM Tris-HCl, pH 6.5, and 0.003% bromphenol blue. After electrophoresis, gels were dried with a Bio-Rad gel dryer prior to autoradiography.

[3] = β2AR as substrate, read-out: IC50 (μM), first intracellular loop peptides as inhibitors of βAR kinase
[4] = read-out: IC50 (concentration of compound which gave 50% inhibition of βAR kinase), rhodopsin as substrate
[5] = rhodopsin as substrate, mean ± S.E.
[6] = IC50 (concentration of compound which gave 50% inhibition of βAR kinase), rhodopsin as substrate
[7] = IC50 (concentration of compound which gave 50% inhibition of βAR kinase), rhodopsin as substrate, mean ± S.E.
[8] = hamster β2AR peptides, ND = no significant inhibition at ˜500 μM, read-out: IC50 (μM), inhibition of β2AR phosphorylation by βAR kinase

Compound: CC[C@H](C)[C@H](NC(=O)[C@H](C)NC(=O)[C@H](CCCCN)NC(=O)[C@H](CCC(N)=O)NC(=O)[C@H](Cc1c[nH]cn1)NC(=O)[C@@H](N)[C@@H](C)O)C(=O)N[C@@H](CC(=O)O)C(=O)N[C@@H](CS)C(=O)N[C@@H](Cc1ccc(O)cc1)C(=O)N[C@@H](Cc1c[nH]cn1)C(=O)N[C@@H](CCCCN)C(=O)N[C@@H](CCC(=O)O)C(=O)N[C@H](C(=O)N[C@@H](CS)C(=O)O)[C@@H](C)O [EII (177-190)] (H-THQKAIDCYHKETC-OH; N-terminus and C-terminus assumed)
inhibition of β2AR phosphorylation (βAR kinase [1]): do not inhibit

Compound: polyaspartic acid
IC50 (βAR kinase [2]; [4]): 1.3 µM
IC50 (concentration of compound which gave 50% inhibition of βAR kinase) (βAR kinase [2]; [5]): 14 µg/mL

Compound: dextran sulfate
Hill coefficient of inhibition (βAR kinase [2]): ~2
IC50 (βAR kinase [2]; [4]): 0.15 µM
IC50 (concentration of compound which gave 50% inhibition of βAR kinase) (βAR kinase [2]; [5]): 0.76 ± 0.21 µg/mL

Compound: VTVQHKKLRTPLNYI [Rhodopsin]
IC50 (βAR kinase [1]; [3]): > 1000 µM

Compound: NCCCNCCCCNCCCN [Spermine, spermine]
inhibition of βAR kinase (βAR kinase [2]): weak inhibitors

Compound: de-N-sulfated heparin
Hill coefficient of inhibition (βAR kinase [2]): ~2
fold weaker than heparin (βAR kinase [2]; rhodopsin as substrate): ~8 fold
IC50 (concentration of compound which gave 50% inhibition of βAR kinase) (βAR kinase [2]; [5]): 6.0 ± 2.4 µg/mL

Compound: heparan sulfate
IC50 (concentration of compound which gave 50% inhibition of βAR kinase) (βAR kinase [2]; [5]): 1.8 µg/mL

Compound: O=P(O)(O)O[C@H]1[C@H](OP(=O)(O)O)[C@@H](OP(=O)(O)O)[C@H](OP(=O)(O)O)[C@@H](OP(=O)(O)O)[C@H]1OP(=O)(O)O [Inositol hexaphosphate, inositol hexaphosphate]
IC50 (βAR kinase [2]; [6]): 3600 µM
IC50 (βAR kinase [2]; [7]): 5040 µM

Compound: Cc1ncc(COP(=O)(O)O)c(C=O)c1O [Pyridoxal phosphate, pyridoxal phosphate]
IC50 (βAR kinase [2]; [6]): 900 µM
IC50 (βAR kinase [2]; [7]): 898 µM
concentration range of inhibition (βAR kinase [2]; rhodopsin as substrate): millimolar range

Compound: KMWNFGNFWC [EI (97-106)]
IC50 (βAR kinase [1]; [8]): 300 µM

Compound: O=S(=O)(O)OC1C(OS(=O)(=O)O)C(OS(=O)(=O)O)C(OS(=O)(=O)O)C(OS(=O)(=O)O)C1OS(=O)(=O)O (centres unmarked) [Inositol hexasulfate, inositol hexasulfate]
IC50 (βAR kinase [2]; [6]): 13.5 µM
IC50 (βAR kinase [2]; [7]): 18.2 µM
times more potent than inositol hexaphosphate (βAR kinase [2]; rhodopsin as substrate): ~270 times

Compound: chondroitin sulfate C
IC50 (concentration of compound which gave 50% inhibition of βAR kinase) (βAR kinase [2]; [5]): 6 µg/mL

Compound: SHVPDHDVTEERDEAW [NT (17-32)]
inhibition of β2AR phosphorylation (βAR kinase [1]): do not inhibit

Compound: NCCCCNCCCN [spermidine]
inhibition of βAR kinase (βAR kinase [2]): weak inhibitors

Compound: O=C(O)C(COP(=O)(O)O)OP(=O)(O)O (centres unmarked) [2,3-Diphosphoglycerate, 2,3-diphosphoglycerate]
IC50 (βAR kinase [2]; [4]): 1100 µM
concentration range of inhibition (βAR kinase [2]; rhodopsin as substrate): millimolar range
IC50 (concentration of compound which gave 50% inhibition of βAR kinase) (βAR kinase [2]; [5]): 838 µg/mL

Compound: chondroitin sulfate B
IC50 (concentration of compound which gave 50% inhibition of βAR kinase) (βAR kinase [2]; [5]): 25 µg/mL

Compound: O=S(=O)(O)NC1C(O)OC(COS(=O)(=O)O)C(O)C1O (centres unmarked) [Glucosamine 2,6-disulfate, glucosamine 2,6-disulfate]
IC50 (βAR kinase [2]; [4]): 7300 µM
concentration range of inhibition (βAR kinase [2]; rhodopsin as substrate): millimolar range
IC50 (concentration of compound which gave 50% inhibition of βAR kinase) (βAR kinase [2]; [5]): 2800 µg/mL

The next lines start with the values.

IC50 (βAR kinase [1]; [3]): 2600 µM
Compound: KFERLQT [β2AR (60-66), KFERLQT]

IC50 (βAR kinase [1]; [3]): 280 µM
Compound: AIAKFQRLQTVTNYF [β2AR (57-71, E → Q), AIAKFORLQTVTNYF]

IC50 (βAR kinase [1]; [3]): > 1000 µM
Compound: AVFTSRALKAPQNLF [α2AR]

IC50 (βAR kinase [1]; [3]): 43 µM
Compound: AIAKFERAQTVTAYF [β2AR (57-71, L → A, N → A)]

IC50 (βAR kinase [1]; [8]): ~40 µM and 40 µM
IC50 (βAR kinase [1]; [3]): 40 µM
Compound: TAIAKFERLQTVTNYFITS [β2AR (56-74)]

IC50 (βAR kinase [1]; [3]): 700 µM
Compound: AIAKTPRLQTLTNLF [β1AR]

IC50 (βAR kinase [1]; [3]): 88 µM
Compound: AIAAFEALQTVTNYF [β2AR (57-71, K → A, R → A)]

IC50 (βAR kinase [2]; [4]): 2 µM
IC50 (concentration of compound which gave 50% inhibition of βAR kinase) (βAR kinase [2]; [5]): 27 ± 2 µg/mL
Compound: polyglutamic acid
